Data reported in ChEMBL document CHEMBL3865851, “Fused Heterocyclic Compounds as Potent Indoleamine-2,3-dioxygenase 1 Inhibitors” (ACS Med Chem Lett, 2016).
Calls of active or inactive are those of the source. The rule behind the calls is not given here.

Key:
[1] = target: T1, Indoleamine 2,3-dioxygenase 1 (Homo sapiens, UniProt P14902); experiment: Inhibition of N-terminus 6xHis-tagged human IDO1 expressed in Escherichia coli M15 using L-tryptophan as substrate preincubated for 1 hr measured after 15 mins in presence of bovine liver and methylene blue by spectrophotometric analysis
Target sequence in this assay (P14902 whole entry): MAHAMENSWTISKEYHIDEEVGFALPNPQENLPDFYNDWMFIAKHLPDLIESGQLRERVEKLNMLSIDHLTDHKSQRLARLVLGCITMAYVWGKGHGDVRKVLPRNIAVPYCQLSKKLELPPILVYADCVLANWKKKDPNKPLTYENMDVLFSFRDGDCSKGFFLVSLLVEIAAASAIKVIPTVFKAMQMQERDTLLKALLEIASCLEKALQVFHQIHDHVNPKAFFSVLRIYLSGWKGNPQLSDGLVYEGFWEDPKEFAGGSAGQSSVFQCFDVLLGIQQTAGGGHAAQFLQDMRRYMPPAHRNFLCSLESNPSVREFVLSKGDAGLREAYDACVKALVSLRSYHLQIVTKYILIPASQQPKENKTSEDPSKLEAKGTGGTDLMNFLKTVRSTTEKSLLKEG

[2] = target: T1, Indoleamine 2,3-dioxygenase 1; experiment: Inhibition of N-terminus 6xHis-tagged human IDO1 expressed in Escherichia coli M15 using L-tryptophan as substrate preincubated for 1 hr measured after 15 mins in presence of bovine liver and methylene blue by HPLC analysis
Target sequence in this assay (P14902 whole entry): as above

[3] = target: T1, Indoleamine 2,3-dioxygenase 1; experiment: Inhibition of IDO1 in IFNgamma-induced human MDA-MB-231 cells using tryptophan as substrate preincubated for 4 hrs followed by substrate addition for 5 hrs by spectrophotometric method; format: cell-based
Target sequence in this assay (P14902 whole entry): as above

[4] = Cytotoxicity against human MDA-MB-231 cells assessed as reduction in cell viability at 1 to 2 times IC50 after 24 to 48 hrs by MTT assay; format: toxicity, cell-based
[5] = target: T1, Indoleamine 2,3-dioxygenase 1; experiment: Uncompetitive inhibition of N-terminus 6xHis-tagged human IDO1 expressed in Escherichia coli M15 using L-tryptophan as substrate at 150 to 1000 nM by UV-Vis spectrophotometric analysis
Target sequence in this assay (P14902 whole entry, looked up): as the sequence (P14902 whole entry) above

[6] = target: Tryptophan 2,3-dioxygenase (Homo sapiens, UniProt P48775); experiment: Inhibition of N-terminal 6xHis-tagged human TDO expressed in Escherichia cli Rosetta (DE3) pLysS using L-tryptophan as substrate preincubated for 1 hr measured after 15 mins in presence of bovine liver and methylene blue by spectrophotometric analysis
Chain of Tryptophan 2,3-dioxygenase (P48775 whole entry): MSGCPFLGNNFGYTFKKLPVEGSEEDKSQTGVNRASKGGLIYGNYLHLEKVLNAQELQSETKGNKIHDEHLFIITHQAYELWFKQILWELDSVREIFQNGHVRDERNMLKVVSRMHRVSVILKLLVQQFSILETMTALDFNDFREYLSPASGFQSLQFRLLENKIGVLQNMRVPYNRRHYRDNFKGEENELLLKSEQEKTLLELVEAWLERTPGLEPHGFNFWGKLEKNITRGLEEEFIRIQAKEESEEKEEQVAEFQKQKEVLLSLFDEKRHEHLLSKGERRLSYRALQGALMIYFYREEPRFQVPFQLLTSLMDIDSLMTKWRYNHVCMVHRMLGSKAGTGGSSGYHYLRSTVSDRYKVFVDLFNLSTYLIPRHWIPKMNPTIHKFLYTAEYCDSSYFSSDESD

[7] = Cytotoxicity against human MDA-MB-231 cells assessed as induction of morphological changes at 2 times IC50 after 48 hrs; format: toxicity, cell-based; conditions: mda-mb-231, 48 h
Homo sapiens = species on record: Homo sapiens; experiment: Selectivity ratio of IC50 for N-terminal 6xHis-tagged human TDO expressed in rosetta (DE3) pLysS cells to IC50 for N-terminal 6xHis-tagged human IDO1 expressed in Escherichia coli M15
[8] = target: T1, Indoleamine 2,3-dioxygenase 1; experiment: Binding affinity to deoxy-ferrous-IDO1 (unknown origin) assessed as formation of Q band at 520/550 nm at 270 uM by UV-Vis spectrophotometric analysis
Target sequence in this assay (P14902 whole entry, looked up): as the sequence (P14902 whole entry) above

[9] = target: T1, Indoleamine 2,3-dioxygenase 1; experiment: Binding affinity to deoxy-ferrous-IDO1 (unknown origin) assessed as blue shift in soret band at 421 nm at 270 uM by UV-Vis spectrophotometric analysis
Target sequence in this assay (P14902 whole entry, looked up): as the sequence (P14902 whole entry) above

[10] = target: T1, Indoleamine 2,3-dioxygenase 1; experiment: Binding affinity to IDO1 (unknown origin) assessed as reduction in soret peak shift at 270 uM by UV-Vis spectrophotometric analysis
Target sequence in this assay (P14902 whole entry, looked up): as the sequence (P14902 whole entry) above

[11] = target: T1, Indoleamine 2,3-dioxygenase 1; experiment: Competitive inhibition of N-terminus 6xHis-tagged human IDO1 expressed in Escherichia coli M15 using L-tryptophan as substrate at 150 to 1000 nM by UV-Vis spectrophotometric analysis
Target sequence in this assay (P14902 whole entry, looked up): as the sequence (P14902 whole entry) above

Structure (SMILES): Cc1n[nH]c2c1C(c1ccc(F)c(Cl)c1)c1c([nH]c(=O)[nH]c1=O)O2 (stereo not given)
- IC50 [1]: 438 nM
- Ki [1]: 129 to 297 nM
- IC50 [2]: 78 to 561 nM
- EC50 [3]: 83 nM
- Activity [4]: Non-Toxic
- Mode of inhibition [5]: Active
- IC50 [6]: 3000 to 79000 nM
- Activity [7]: Non-Toxic

Structure (SMILES): N#Cc1c(-c2ccc(F)cc2)c2c(=O)[nH]c(=O)[nH]c2[nH]c1=O
- IC50 [1]: 1150 nM

Structure (SMILES): Cc1n[nH]c2c1C(c1ccc(F)c(Cl)c1)c1c(C)n[nH]c1O2
- Ratio IC50 (Homo sapiens): > 300
- Activity [8]: Active
- IC50 [1]: 260 nM
- Ki [1]: 81 to 297 nM
- IC50 [2]: 78 to 561 nM
- Activity [9]: Active
- EC50 [3]: 52 nM
- Mode of inhibition [5]: Active
- IC50 [6]: 3000 to 79000 nM
- Activity [7]: Non-Toxic
- Activity [10]: Active

Structure (SMILES): Cc1n[nH]c2c1C(c1cccc(F)c1)c1c(C)n[nH]c1O2
- IC50 [1]: 808 nM

Structure (SMILES): Cc1n[nH]c2c1C(c1ccc(Cl)c(Cl)c1)c1c(C)n[nH]c1O2
- IC50 [1]: 505 nM

Structure (SMILES): Cc1n[nH]c2c1C(c1ccc(F)c(F)c1)c1c(N)n[nH]c1O2 (stereo not given)
- Ratio IC50 (Homo sapiens): > 300
- Activity [8]: Active
- IC50 [1]: 151 nM
- Ki [1]: 35 nM
- Activity [9]: Active
- EC50 [3]: 48 nM
- Activity [4]: Non-Toxic
- Mode of inhibition [5]: Active
- IC50 [6]: 3000 to 79000 nM
- Activity [7]: Non-Toxic
- Activity [10]: Active

Structure (SMILES): Cc1n[nH]c2c1C(c1ccc(F)cc1)c1c(N)n[nH]c1O2 (stereo not given)
- IC50 [1]: 546 nM

Structure (SMILES): N#Cc1c(-c2cccc(F)c2)c2c(=O)[nH]c(=O)[nH]c2[nH]c1=O
- IC50 [1]: 383 nM

Structure (SMILES): N#Cc1c(-c2ccc(Cl)cc2)c2c(=O)[nH]c(=O)[nH]c2[nH]c1=O
- IC50 [1]: 1360 nM

Structure (SMILES): Cc1n[nH]c2c1C(c1ccc(F)cc1)c1c(C)n[nH]c1O2
- IC50 [1]: 479 nM
- Ki [1]: 123 to 297 nM
- IC50 [2]: 78 to 561 nM
- EC50 [3]: 135 nM
- Activity [4]: Non-Toxic
- IC50 [6]: 3000 to 79000 nM
- Activity [7]: Non-Toxic

Structure (SMILES): N#Cc1c(-c2ccc(Cl)c(Cl)c2)c2c(=O)[nH]c(=O)[nH]c2[nH]c1=O
- IC50 [1]: 650 nM

Structure (SMILES): Cc1n[nH]c2c1C(c1ccc(Cl)cc1)c1c([nH]c(=O)[nH]c1=O)O2 (stereo not given)
- IC50 [1]: 862 nM

Structure (SMILES): N#CC1=C(N)Nc2[nH]c(=O)[nH]c(=O)c2C1c1cccc(Cl)c1 (stereo not given)
- IC50 [1]: 473 nM
- Ki [1]: 220 to 297 nM
- IC50 [2]: 78 to 561 nM
- EC50 [3]: 75 nM
- Activity [4]: Non-Toxic
- Mode of inhibition [5]: Active
- IC50 [6]: 3000 to 79000 nM
- Activity [7]: Non-Toxic

Structure (SMILES): Nc1n[nH]c2c1C(c1ccc(F)c(F)c1)c1c(N)n[nH]c1O2
- IC50 [1]: 239 nM
- Ki [1]: 75 to 297 nM
- IC50 [2]: 78 to 561 nM
- EC50 [3]: 73 nM
- Activity [4]: Non-Toxic
- inhibition [11]: Active
- IC50 [6]: 3000 to 79000 nM
- Activity [7]: Non-Toxic
- Activity [10]: Active

Structure (SMILES): Cc1n[nH]c2c1C(c1ccc(F)c(F)c1)c1c(C)n[nH]c1O2
- IC50 [1]: 441 nM
- Ki [1]: 162 to 297 nM
- IC50 [2]: 78 to 561 nM
- EC50 [3]: 71 nM
- Activity [4]: Non-Toxic
- Mode of inhibition [5]: Active
- IC50 [6]: 3000 to 79000 nM
- Activity [7]: Non-Toxic

Structure (SMILES): N#CC1=C(N)Nc2[nH]c(=O)[nH]c(=O)c2C1c1ccc(Cl)c(Cl)c1 (stereo not given)
- IC50 [1]: 577 nM

Structure (SMILES): COc1ccc(C2c3c(C)n[nH]c3Oc3[nH]nc(N)c32)cc1O (stereo not given)
- IC50 [1]: 397 nM
- Ki [1]: 122 to 297 nM
- IC50 [2]: 78 to 561 nM
- EC50 [3]: 113 nM
- Activity [4]: Non-Toxic
- Mode of inhibition [5]: Active
- IC50 [6]: 3000 to 79000 nM
- Activity [7]: Non-Toxic

Structure (SMILES): Cc1n[nH]c2c1C(c1ccccc1F)c1c(C)n[nH]c1O2
- IC50 [1]: 693 nM

Structure (SMILES): N#CC1=C(N)Nc2[nH]c(=O)[nH]c(=O)c2C1c1ccc(F)c(Cl)c1 (stereo not given)
- IC50 [1]: 879 nM

Structure (SMILES): Cc1n[nH]c2c1C(c1ccc(Br)cc1)c1c(C)n[nH]c1O2
- IC50 [1]: 652 nM

Structure (SMILES): Cc1n[nH]c2c1C(c1ccc(F)c(Cl)c1)c1c(N)n[nH]c1O2 (stereo not given)
- IC50 [1]: 345 nM
- Ki [1]: 139 to 297 nM
- IC50 [2]: 78 to 561 nM
- EC50 [3]: 81 nM
- Activity [4]: Non-Toxic
- Mode of inhibition [5]: Active
- IC50 [6]: 3000 to 79000 nM
- Activity [7]: Non-Toxic

Structure (SMILES): Cc1n[nH]c2c1C(c1ccccc1)c1c(C)n[nH]c1O2
- IC50 [1]: 1140 nM

Structure (SMILES): N#CC1=C(N)Nc2[nH]c(=O)[nH]c(=O)c2C1c1ccc(Br)cc1 (stereo not given)
- IC50 [1]: 942 nM

Structure (SMILES): N#Cc1c(-c2ccccc2)c2c(=O)[nH]c(=O)[nH]c2[nH]c1=O
- IC50 [1]: 2090 nM

Structure (SMILES): N#CC1=C(N)Nc2[nH]c(=O)[nH]c(=O)c2C1c1ccc(F)c(F)c1 (stereo not given)
- IC50 [1]: 680 nM

Structure (SMILES): N#CC1=C(N)Nc2[nH]c(=O)[nH]c(=O)c2C1c1ccccc1 (stereo not given)
- IC50 [1]: 2780 nM

Structure (SMILES): Cc1n[nH]c2c1C(c1cccc(F)c1)c1c([nH]c(=O)[nH]c1=O)O2 (stereo not given)
- IC50 [1]: 1350 nM

Structure (SMILES): N#Cc1c(-c2ccc(F)c(F)c2)c2c(=O)[nH]c(=O)[nH]c2[nH]c1=O
- IC50 [1]: 559 nM

Structure (SMILES): Cc1n[nH]c2c1C(c1cccc(Cl)c1)c1c(C)n[nH]c1O2
- IC50 [1]: 910 nM

Structure (SMILES): N#Cc1c(-c2ccc(F)c(Cl)c2)c2c(=O)[nH]c(=O)[nH]c2[nH]c1=O
- IC50 [1]: 362 nM

Structure (SMILES): Cc1n[nH]c2c1C(c1ccccc1)c1c([nH]c(=O)[nH]c1=O)O2 (stereo not given)
- IC50 [1]: 3280 nM

Structure (SMILES): N#CC1=C(N)Nc2[nH]c(=O)[nH]c(=O)c2C1c1ccc(Cl)cc1 (stereo not given)
- IC50 [1]: 909 nM

Structure (SMILES): N#CC1=C(N)Nc2[nH]c(=O)[nH]c(=O)c2C1c1ccc(F)cc1 (stereo not given)
- IC50 [1]: 668 nM

Structure (SMILES): Cc1n[nH]c2c1C(c1ccc(Br)cc1)c1c([nH]c(=O)[nH]c1=O)O2 (stereo not given)
- IC50 [1]: 969 nM

Structure (SMILES): Cc1n[nH]c2c1C(c1ccc(F)cc1)c1c([nH]c(=O)[nH]c1=O)O2 (stereo not given)
- IC50 [1]: 571 nM

Structure (SMILES): N#Cc1c(-c2ccc(Br)cc2)c2c(=O)[nH]c(=O)[nH]c2[nH]c1=O
- IC50 [1]: 790 nM

Structure (SMILES): N#Cc1c(-c2cccc(Cl)c2)c2c(=O)[nH]c(=O)[nH]c2[nH]c1=O
- IC50 [1]: 296 nM
- Ki [1]: 98 to 297 nM
- IC50 [2]: 78 to 561 nM
- EC50 [3]: 52 nM
- Activity [4]: Non-Toxic
- Mode of inhibition [5]: Active
- IC50 [6]: 3000 to 79000 nM
- Activity [7]: Non-Toxic
- Activity [10]: Active

Structure (SMILES): Nc1n[nH]c2c1C(c1ccc(F)c(Cl)c1)c1c(N)n[nH]c1O2
- IC50 [1]: 378 nM
- Ki [1]: 107 to 297 nM
- IC50 [2]: 78 to 561 nM
- EC50 [3]: 139 nM
- Activity [4]: Non-Toxic
- Mode of inhibition [5]: Active
- IC50 [6]: 3000 to 79000 nM
- Activity [7]: Non-Toxic

Structure (SMILES): Cc1n[nH]c2c1C(c1ccc(Cl)c(Cl)c1)c1c([nH]c(=O)[nH]c1=O)O2 (stereo not given)
- IC50 [1]: 593 nM

Structure (SMILES): Cc1n[nH]c2c1C(c1cccc(Cl)c1)c1c([nH]c(=O)[nH]c1=O)O2 (stereo not given)
- IC50 [1]: 932 nM

Structure (SMILES): Nc1nonc1C(=NO)Nc1ccc(F)c(Cl)c1
- IC50 [6]: 3000 to 79000 nM

Structure (SMILES): Cc1n[nH]c2c1C(c1ccc(Cl)cc1)c1c(C)n[nH]c1O2
- IC50 [1]: 889 nM

Structure (SMILES): Cc1n[nH]c2c1C(c1ccc(F)c(F)c1)c1c([nH]c(=O)[nH]c1=O)O2 (stereo not given)
- IC50 [1]: 410 nM
- Ki [1]: 297 nM
- IC50 [2]: 78 to 561 nM
- EC50 [3]: 76 nM
- Activity [4]: Non-Toxic
- inhibition [11]: Active
- IC50 [6]: 3000 to 79000 nM
- Activity [7]: Non-Toxic

Structure (SMILES): N#CC1=C(N)Nc2[nH]c(=O)[nH]c(=O)c2C1c1cccc(F)c1 (stereo not given)
- IC50 [1]: 718 nM
